According to ChEMBL document CHEMBL1145731, “A green fluorescent chemosensor for amino acids provides a versatile high-throughput screening (HTS) assay for proteases” (Bioorg Med Chem Lett, 2003):

Experiment: Concentration required for obtaining 50% of the fluorescence intensity of copper-free calcein 1, in bovine serum albumin

| SMILES | EC50 [µM] |
| --- | --- |
| C[C@H](N)C(=O)O [ALANINE] | ~800 |
| N[C@@H](CS)C(=O)O [CYSTEINE] | 20 |
| O=C(O)CN(CCN(CC(=O)O)CC(=O)O)CC(=O)O [EDETIC ACID] | 10 |
| NCC(=O)O [GLYCINE] | 500 |
| N[C@@H](Cc1c[nH]cn1)C(=O)O [HISTIDINE] | 10 |
| CC(C)CC(N)C(N)=O (stereo not given) [LEUCINAMIDE] | 12000 |

Other lines, results leading:

| EC50 [µM] | SMILES |
| --- | --- |
| 5000 | CC(C)C[C@H](N)C(=O)O [LEUCINE] |
| 800 | CSCC[C@H](N)C(=O)O [METHIONINE] |
| 700 | N[C@@H](CO)C(=O)O [SERINE] |
| 1500 | CC(C)[C@H](N)C(=O)O [VALINE] |
